In brackets after ≈: the same amount, converted by molar mass.
Legend:
[1] = Solubility of ACF in different media; format: physicochemical; conditions: thermodynamic from solid
Procedure: The mixture was shaken using a vortex mixer (Heidolph Instrument, D-91126 Schwabach, type RZR 2021, Bavaria, Germany) for 15 min, followed by storage at room temperature. After 24 h, the resulting solution was subjected to centrifugation at 3000 rpm for 5 min to separate the clear supernatant. A suitable sample solution was collected and diluted with absolute methanol. The diluted sample was filtered using Whatman 102 filter paper and further diluted with absolute methanol for the determination of the drug concentration in the saturated solution. Analysis of the samples was performed using a UV spectrophotometer (DU 640; Beckman, CA, USA) at a wavelength of 276 nm, with methanol as the blank reference.

[2] = system: A375 human melanoma cell lines; assay: Cytotoxicity SRB assay; format: cell-based; conditions: A-375, 48 h of incubation (method says 72 h)
Procedure: Cell viability was assessed by SRB assay as reported [47]. […] Melanoma cells were mixed with TCA (10%) and maintained at 4 °C for 1 h, then washed with D.W. Sulforhodamine B (70 μL) (0.4% w/v) was added and kept for 10 min. Plates were washed by 1% acetic acid 3 times and left to dry overnight. TRIS (150 μL) was added to dissolve the protein-bound SRB stain. Lastly, absorbance was determined by a star Omega microplate reader (BMGLABTECH®-FLUO, Ortenberg, Germany) at 540 nm [48, 49]. Cytotoxicity was expressed as (IC50), which was determined by plotting %viability against the concentration of the drug (five concentrations were used). IC50 values were calculated from the dose–response curve by the PRISM program.

Question: Which solubility at 24 h ([1]; oil or lipid, citronellol oil, room temperature) does the source give for `O=C(O)COC(=O)Cc1ccccc1Nc1c(Cl)cccc1Cl` [ACF, Aceclofenac] here?
Answer: Its solubility at 24 h is 5.26 mg/mL (≈ 14.9 mM).

Question: And the solubility at 24 h ([1]; organic solvent or mixture, Transcutol HP, room temperature)?
Answer: Its solubility at 24 h is 300 mg/mL (≈ 848 mM).

Question: What about the solubility at 24 h ([1]; Tween 80, room temperature) of the same compound?
Answer: The solubility at 24 h was 62.6 mg/mL (≈ 177 mM).

Question: What about the solubility at 24 h ([1]; water, room temperature) of the same compound?
Answer: Its solubility at 24 h is 0.071 mg/mL (≈ 0.2 mM).

Question: And the IC50 [2]?
Answer: The IC50 was 69.3 µg/mL (≈ 0.196 mM).

From article PMC10525854 (Biomedicines, 2023)
